Drawing on EP4692089A1, “NITROGEN-CONTAINING HETEROCYCLIC COMPOUND AS AAK1 INHIBITOR” (Alicorn Pharmaceutical Co., Ltd., priority 2023, dated 2024), this text covers IC50 and EC50 for 16 compounds.

The target in test [1] is T1, AAK1 (Homo sapiens, UniProt Q2M2I8).
T1 construct: HA; expressed in transfected cells; host or cells: 293T cells
Put plainly: Effect on AP2M1 phosphorylation in 293T cells co-transfected with AAK1 and AP2M1 (Western blot, anti-p-AP2M1). The class given is cell-based. The following applies: p-AP2M1 level, incubated 3 h. From the text: Experimental objective: The objective of this test example is to determine the effect of compounds on AP2M1 phosphorylation in cells.
Background principle: Adaptor-associated kinase 1 (AAK1), also known as AP2-associated kinase 1, is a 104 kDa serine/threonine kinase. AAK1 interacts with the adaptor protein 2 (AP2) complex and phosphorylates the threonine residue in the micro-subunit of AP2 (AP2M1), thereby increasing its binding affinity for certain tyrosine-based or dileucine-based sorting signals of some membrane receptors. The inhibitory effect of compounds on AAK1 was evaluated by detecting the phosphorylation level of AP2M1 in cells, so as to screen candidate compounds.
On the second day, each T25 flask was co-transfected with 16 µg of plasmids (1 µg of AAK1/HA/pIRES and 15 µg of Flag/AP2MI/pcDNA) using a Lip2000 transfection reagent. On the third day, the cells were digested and resuspended, centrifuged at 1000 rpm for 5 minutes, and then seeded into 24-well plates at 450 µl per well (2 × 10^5 cells/well). Gradient dilutions of the compounds to be tested were prepared, 50 µl was added to each well, mixed thoroughly, and incubated at 37°C for 3 h. DMSO was set as a control, and cells without plasmid transfection were set as a blank control. After incubation, the cells were collected and washed twice with PBS. The cells were lysed on ice for 30 minutes using a cell lysis buffer containing the protease inhibitor PMSF. The concentration of protein samples was determined using a BCA kit. Protein electrophoresis: The voltage for the stacking gel was set at 60 V, and that for the separating gel was set at 120 V. After electrophoresis, electrotransfer was initiated. Electrotransfer conditions were set at 250 mA for 2 h. Blocking with 5% BSA was performed for 1 h. A specific primary antibody, anti-p-AP2M1, was added, and incubation was carried out overnight at 4°C on a shaker. Washing with TBST was conducted 4 times, with 2.5 minutes each time. A secondary antibody was incubated on a shaker at room temperature for 1 h. Washing with TBST was conducted 4 times, with 2.5 minutes each time. ECL was used for development to detect the expression level of p-AP2M1. Western blot bands were processed and converted using Image J and GraphPad software to calculate IC50.
IC50 (half maximal inhibitory concentration) refers to the half-inhibitory concentration of the measured antagonist. It can indicate the concentration of a certain drug or substance (inhibitor) that achieves half of the inhibition effect on certain biological processes (or certain substances involved in these processes, such as enzymes, cellular receptors, or microorganisms).

Test [2] addresses T2, AAK1 (30-330) protein (Homo sapiens, UniProt Q2M2I8).
T2 construct: (His)6x (N); TEV protease cleavage site (N); made in house; host or cells: Escherichia coli BL21(DE3)
The experiment in a line: CETSA test of binding ability to AAK1 protein (Western blot). The procedure: Experimental objective: To detect the binding ability of compounds to AAK1 protein by means of a CETSA experiment.
Background principle: The CETSA experiment is a molecular detection means for measuring the affinity between drugs and target proteins. […] When a candidate drug is co-incubated with a target protein, if the candidate drug is an inhibitor of AAK1, it can bind to AAK1. […] On the contrary, the stability of the AAK1 protein after heating will be poorer, and the amount of the detected protein will be lower. In this way, the binding ability of the drug to the target protein can be evaluated, which is used for the screening of AAK1 protein inhibitors.
(§1) Expression of AAK1 (30-330) protein: The AAK1 sequence (residues 30-330) was cloned into the pET24N vector with an N-terminal (His)6x tag and a tobacco etch virus (TEV) protease cleavage site. The constructed vector was transformed into Escherichia coli BL21(DE3). When the bacteria were cultured with shaking to reach an OD value of 0.6, 1 mM IPTG was added. […] The bacterial cells were collected and subjected to ultrasonic disruption. The supernatant was obtained by centrifugation, and the protein was purified using Ni-NTA. After dialysis, the concentration and purity of the protein were determined.
CETSA sample preparation: Samples were incubated with candidate drugs, control drugs, and control reagents separately for 30 minutes. Each group of samples was heated at approximately 10 pre-set temperature points. After being returned to room temperature, the samples were centrifuged at 20000 g, and the supernatants were collected. Protein samples were denatured by heating at 100°C for 10 minutes with a sample buffer. After the samples were returned to room temperature, Western blot detection was performed on them; the protein loading amount was controlled at 20 µg. […] The same operations were followed, and Western blot detection was conducted. Protein electrophoresis: The voltage for the stacking gel was set at 60 V, and that for the separating gel was set at 120 V. After electrophoresis, electrotransfer was initiated. Electrotransfer conditions were set at 250 mA for 2 h. Blocking with 5% BSA was performed for 1 h. A specific primary antibody was added, and incubation was carried out overnight at 4°C on a shaker. Washing with TBST was conducted 4 times, with 2.5 minutes each time. A secondary antibody was incubated on a shaker at room temperature for 1 h. Washing with TBST was conducted 4 times, with 2.5 minutes each time. ECL was used for development to detect the expression levels of AAK1 protein in different groups and at each temperature point. Western blot bands were processed and converted using Image J and GraphPad software to calculate EC50.

In test [3] the target is T2, AAK1 (30-330) protein. Put plainly: AAK1 kinase assay (ADP generated, detected by HPLC). The following applies: 3.5 nM AAK1, 22 µM ATP, 25°C, 3 h. The class given is biochemical.
Source text: Experimental objective: The objective of this test example is to test the effect of compounds on AAK1 kinase function.
Background principle: AAK1 phosphorylates the threonine residue in the micro-subunit of AP2 (AP2M1). In this process, ATP provides phosphate groups to generate ADP. Therefore, the activity of AAK1 kinase can be evaluated by detecting the amount of ADP generated.
as §1
The reaction mixture was incubated in a metal bath at 25°C for 3 h. The reaction was terminated by adding 1% SDS, and the amount of ADP generated was detected by HPLC. IC50 values were calculated using GraphPad software.

T1 sequence (Q2M2I8 whole entry): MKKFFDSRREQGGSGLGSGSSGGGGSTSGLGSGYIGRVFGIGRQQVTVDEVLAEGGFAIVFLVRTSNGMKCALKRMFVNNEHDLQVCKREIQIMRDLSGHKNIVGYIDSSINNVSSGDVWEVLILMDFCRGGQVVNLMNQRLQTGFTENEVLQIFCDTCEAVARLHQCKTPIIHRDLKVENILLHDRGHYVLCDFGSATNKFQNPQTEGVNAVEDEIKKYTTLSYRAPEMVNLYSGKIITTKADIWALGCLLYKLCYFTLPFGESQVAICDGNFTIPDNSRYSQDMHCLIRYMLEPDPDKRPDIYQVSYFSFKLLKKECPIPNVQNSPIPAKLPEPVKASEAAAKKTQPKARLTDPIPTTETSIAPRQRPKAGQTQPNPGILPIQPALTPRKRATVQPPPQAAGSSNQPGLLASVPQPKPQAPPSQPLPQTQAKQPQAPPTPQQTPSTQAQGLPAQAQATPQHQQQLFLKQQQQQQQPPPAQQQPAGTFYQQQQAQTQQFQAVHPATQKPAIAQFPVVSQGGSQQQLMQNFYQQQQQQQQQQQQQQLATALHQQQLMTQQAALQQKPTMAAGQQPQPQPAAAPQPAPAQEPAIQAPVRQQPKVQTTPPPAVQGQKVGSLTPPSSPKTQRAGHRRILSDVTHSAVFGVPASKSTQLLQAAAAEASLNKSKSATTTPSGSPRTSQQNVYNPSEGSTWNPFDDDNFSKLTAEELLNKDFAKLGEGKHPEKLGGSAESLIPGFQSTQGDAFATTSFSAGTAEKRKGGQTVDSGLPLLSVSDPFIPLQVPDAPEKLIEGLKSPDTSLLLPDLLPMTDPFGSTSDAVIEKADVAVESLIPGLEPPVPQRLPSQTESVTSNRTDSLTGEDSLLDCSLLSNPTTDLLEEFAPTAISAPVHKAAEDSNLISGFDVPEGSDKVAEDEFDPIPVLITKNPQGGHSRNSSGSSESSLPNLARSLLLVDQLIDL
T2 sequence (Q2M2I8 30-330): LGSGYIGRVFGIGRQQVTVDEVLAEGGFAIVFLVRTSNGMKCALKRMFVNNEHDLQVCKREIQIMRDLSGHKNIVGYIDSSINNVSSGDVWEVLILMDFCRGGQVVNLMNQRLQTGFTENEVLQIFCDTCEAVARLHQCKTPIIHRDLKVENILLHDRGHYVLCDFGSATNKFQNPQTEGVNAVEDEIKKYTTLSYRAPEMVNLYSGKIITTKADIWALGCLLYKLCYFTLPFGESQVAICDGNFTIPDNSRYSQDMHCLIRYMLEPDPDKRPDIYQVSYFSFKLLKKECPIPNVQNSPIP

On to `CC(C)C[C@](C)(N)COc1ccc(-c2ccnc3c(C(=O)O)cnn23)nc1C1CC1` [Compound 22], for which the IC50 in test [1] is 10 to 100 nM; in test [3], 170 nM. In test [2], this compound showed an EC50 of 100 to 1000 nM.
In the case of `CC(C)C[C@@](C)(N)COc1ccc(-c2ccnc3[nH]c(C(F)(F)F)nc23)nc1C(F)F` [Compound 9], the IC50 in test [1] was 10 to 100 nM; in test [3], 99.2 nM. The compound also registered an EC50 in test [2] of 10 to 100 nM.
For the compound `CC(C)C[C@](C)(N)COc1ccc(-c2c[nH]c3nc(C(F)(F)F)ccc23)nc1C(F)F` [Compound 4], the results for the IC50 in test [1] and in test [3] were 10 to 100 nM and 45.9 nM, respectively. This compound also displayed an EC50 in test [2] of 10 to 100 nM.
`CC(C)C[C@](C)(N)COc1ccc(-c2ccnc3c(F)cnn23)nc1C(F)F` [Compound 18]: the 50% inhibitory concentration (IC50) is 10 to 100 nM in test [1] and 42.5 nM in test [3]. For the same compound, the half-maximal effective concentration (EC50) in test [2] lay in the range of 10 to 100 nM.
For `CC(C)C[C@@](C)(N)COc1ccc(-c2cncc3[nH]c(C(F)(F)F)nc23)nc1C(F)F` [Compound 13], the half-inhibitory concentration (IC50) was 10 to 100 nM in test [1] and 168 nM in test [3]. For the same compound, the 50% effective concentration (EC50) in test [2] was in the range of 10 to 100 nM.
`CC(C)C[C@](C)(N)COc1ccc(-c2cncc3[nH]c(C(F)(F)F)nc23)nc1C(F)F` [Compound 12]: the IC50 was 10 to 100 nM in test [1] and 99.2 nM in test [3]. In test [2], this compound yielded an EC50 of 10 to 100 nM.
As to `CC(C)C[C@@](C)(N)COc1ccc(-c2ccnc3ccnn23)nc1C(F)F` [Compound 1, (R)-1-{[2-(difluoromethyl)-6-(pyrazolo[1,5-a]pyrimidin-7-yl)pyridin-3-yl]oxy}-2,4-dimet hylpentan-2-amine], the concentration for half-maximal inhibition (IC50) in test [1] is 10 to 100 nM; in test [3], 32.1 nM. The compound also showed a 50% effective concentration (EC50) in test [2] of 10 to 100 nM.
For the compound `CC(C)C[C@@](C)(N)COc1ccc(-c2c[nH]c3nc(C(F)(F)F)ccc23)nc1C(F)F` [Compound 5], the IC50 is 10 to 100 nM in test [1] and 86.1 nM in test [3]. Also, in test [2], the EC50 is 10 to 100 nM.
Consider `CC(C)C[C@](C)(N)COc1ccc(-c2ccnc3c2nc(C(F)(F)F)n3C)nc1C(F)F` [Compound 10], for which the 50% inhibitory concentration (IC50) in test [1] is 10 to 100 nM; in test [3], 152 nM. In addition, the EC50 in test [2] is 10 to 100 nM.
For the compound `CC(C)C[C@](C)(N)COc1ccc(-c2ccnc3[nH]c(C(F)(F)F)nc23)nc1C(F)F` [Compound 8], the IC50 in test [1] was 10 to 100 nM; in test [3], 129 nM. In addition, the EC50 in test [2] was in the range of 10 to 100 nM.
For the compound `CC(C)C[C@@](C)(N)COc1ccc(-c2c[nH]c3nc(F)ccc23)nc1C(F)F` [Compound 15], the IC50 was 10 to 100 nM in test [1] and 111 nM in test [3]. This compound also came in with an EC50 in test [2] of 10 to 100 nM.
Consider `CC(C)C[C@](C)(N)COc1ccc(-c2c[nH]c3ncccc23)nc1C(F)F` [Compound 3], for which the figures for the half-inhibitory concentration (IC50) in test [1] and in test [3] were 10 to 100 nM and 21.2 nM, respectively. For the same compound, the EC50 in test [2] fell in the range of 10 to 100 nM.
Turning to `Cc1cnc2[nH]cc(-c3ccc(OC[C@@](C)(N)CC(C)C)c(C(F)F)n3)c2c1` [Compound 45, (S)-1-{[2-(difluoromethyl)-6-(5-methyl-1H-pyrrolo[2,3-b]pyridin-3-yl)pyridin-3-yl]oxy}-2,4-dimethylpentan-2-amine diformate], the IC50 in test [1] is less than 10 nM; in test [3] it was 6.5 nM. Further, in test [2], the EC50 was less than 10 nM.
For the compound `Cc1nc2ccnn2c(-c2ccc(OC[C@](C)(N)CC(C)C)c(C(F)F)n2)c1F` [Compound 21], the 50% inhibitory concentration (IC50) in test [1] was 10 to 100 nM; in test [3], 190 nM. In test [2], this compound yielded an EC50 of 100 to 1000 nM.
As to `CC(C)C[C@](C)(N)COc1ccc(-c2cn(C)c3ncc(F)cc23)nc1C(F)F` [Compound 43, (S)-1-{[2-(difluoromethyl)-6-(5-fluoro-1-methyl-1H-pyrrolo[2,3-b]pyridin-3-yl)pyridin-3-yl]oxy}-2,4-dimethylpentan-2-amine], the values for the IC50 in test [1] and in test [3] were less than 10 nM and 12.1 nM, respectively. The EC50 in test [2] is less than 10 nM.
`CC(C)C[C@@](C)(N)COc1ccc(-c2ccnc3c2nc(C(F)(F)F)n3C)nc1C(F)F` [Compound 11]: the IC50 in test [1] is 10 to 100 nM; in test [3], 123 nM. Moreover, the EC50 in test [2] is 10 to 100 nM.
